Laboratory results as given in ChEMBL document CHEMBL1201862, “PubChem BioAssay data set” (2004).
The source made the active and inactive calls.

How the values were obtained:
[1] = target: T1, Adenosylmethionine-8-amino-7-oxononanoate aminotransferase (Mycobacterium tuberculosis, UniProt P9WQ81); assay: Mycobacterium tuberculosis BioA enzyme inhibitor Measured in Biochemical System Using Plate Reader - 2163-02_Inhibitor_Dose_CherryPick_Activity.; format: functional, Mycobacterium tuberculosis UT205
T1 sequence (P9WQ81 whole entry): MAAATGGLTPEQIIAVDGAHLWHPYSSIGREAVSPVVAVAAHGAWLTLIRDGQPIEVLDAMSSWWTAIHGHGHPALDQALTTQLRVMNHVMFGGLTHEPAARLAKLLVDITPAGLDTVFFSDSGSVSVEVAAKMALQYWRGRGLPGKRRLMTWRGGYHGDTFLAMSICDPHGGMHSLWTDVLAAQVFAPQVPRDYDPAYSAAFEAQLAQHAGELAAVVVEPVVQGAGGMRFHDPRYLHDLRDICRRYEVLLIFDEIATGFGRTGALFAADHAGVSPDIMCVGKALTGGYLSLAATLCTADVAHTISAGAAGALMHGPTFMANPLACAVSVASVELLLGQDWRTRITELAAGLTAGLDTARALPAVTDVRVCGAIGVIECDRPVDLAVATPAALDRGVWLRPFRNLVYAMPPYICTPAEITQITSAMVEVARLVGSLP

[2] = target: SWI/SNF-related matrix-associated actin-dependent regulator of chromatin subfamily A member 2 (Homo sapiens, UniProt P51531); assay: Luminescence-based cell-based high throughput dose response assay to identify activators of the function of SWI/SNF related, matrix associated, actin dependent regulator of chromatin, subfamily a, member 2 (SMARCA2, BRM).; format: functional
Chain of SWI/SNF-related matrix-associated actin-dependent regulator of chromatin subfamily A member 2 (P51531 whole entry): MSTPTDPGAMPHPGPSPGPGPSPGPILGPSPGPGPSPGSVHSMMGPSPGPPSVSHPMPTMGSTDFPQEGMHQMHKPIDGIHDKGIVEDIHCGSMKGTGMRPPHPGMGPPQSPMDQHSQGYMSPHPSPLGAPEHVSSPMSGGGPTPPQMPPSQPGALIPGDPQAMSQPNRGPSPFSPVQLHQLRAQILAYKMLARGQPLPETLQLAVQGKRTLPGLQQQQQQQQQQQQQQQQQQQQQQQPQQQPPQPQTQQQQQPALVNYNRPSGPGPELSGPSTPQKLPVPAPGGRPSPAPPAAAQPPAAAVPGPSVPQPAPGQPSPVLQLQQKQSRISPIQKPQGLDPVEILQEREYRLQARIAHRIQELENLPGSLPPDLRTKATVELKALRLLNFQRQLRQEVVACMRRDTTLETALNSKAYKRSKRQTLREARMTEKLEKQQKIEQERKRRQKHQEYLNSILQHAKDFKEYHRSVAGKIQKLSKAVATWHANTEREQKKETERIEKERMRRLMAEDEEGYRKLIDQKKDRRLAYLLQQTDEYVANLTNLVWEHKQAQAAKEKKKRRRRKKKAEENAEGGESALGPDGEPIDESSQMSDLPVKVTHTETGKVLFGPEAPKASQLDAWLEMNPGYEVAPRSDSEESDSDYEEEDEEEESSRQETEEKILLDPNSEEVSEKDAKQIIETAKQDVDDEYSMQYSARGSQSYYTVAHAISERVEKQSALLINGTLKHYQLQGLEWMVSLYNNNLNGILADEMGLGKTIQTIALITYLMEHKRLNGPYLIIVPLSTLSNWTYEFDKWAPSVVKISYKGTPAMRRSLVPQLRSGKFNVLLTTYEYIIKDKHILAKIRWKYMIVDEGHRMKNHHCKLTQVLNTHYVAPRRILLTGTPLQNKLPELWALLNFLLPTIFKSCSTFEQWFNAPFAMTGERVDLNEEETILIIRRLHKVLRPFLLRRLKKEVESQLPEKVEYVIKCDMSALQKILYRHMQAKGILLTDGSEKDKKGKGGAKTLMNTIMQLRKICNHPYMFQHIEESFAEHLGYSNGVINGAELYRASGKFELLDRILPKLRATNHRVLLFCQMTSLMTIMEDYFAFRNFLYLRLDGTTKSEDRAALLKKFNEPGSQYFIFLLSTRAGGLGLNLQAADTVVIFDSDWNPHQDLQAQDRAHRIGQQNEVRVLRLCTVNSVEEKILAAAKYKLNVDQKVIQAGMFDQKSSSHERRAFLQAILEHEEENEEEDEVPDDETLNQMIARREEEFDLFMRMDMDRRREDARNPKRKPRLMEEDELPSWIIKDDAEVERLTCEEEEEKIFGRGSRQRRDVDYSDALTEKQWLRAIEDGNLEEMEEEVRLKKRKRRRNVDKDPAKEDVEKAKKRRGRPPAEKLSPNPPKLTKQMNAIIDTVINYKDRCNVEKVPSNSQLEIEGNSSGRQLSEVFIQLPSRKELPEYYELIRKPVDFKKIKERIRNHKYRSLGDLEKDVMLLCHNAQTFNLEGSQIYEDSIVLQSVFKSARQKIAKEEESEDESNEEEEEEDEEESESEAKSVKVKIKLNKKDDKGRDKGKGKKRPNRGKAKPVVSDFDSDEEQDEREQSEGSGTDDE

[3] = Counterscreen for activators of the function of SWI/SNF related, matrix associated, actin dependent regulator of chromatin, subfamily a, member 2 (SMARCA2, BRM): Luminescence-based cell-based high throughput dose response assay to identify non-selective compounds using the VP16 reporter assay.; format: functional
[4] = ADAM10 protease inhibitors, dose response, selectivity assay for ADAM17 exosite inhibitor project, biochemical, FRET peptide substrate, recombinant human ADAM10 (AID 743259);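 further: ADAM10 enzyme cleaving a FRET peptide substrate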
[5] = target: T2, Mannose-6-phosphate isomerase (Homo sapiens, UniProt P34949); assay: human PMI inhibitors, high substrate, primary screen, biochemical, fluorescence intensity, high mannose 6-phosphate (AID 1220)
T2 sequence (P34949 whole entry): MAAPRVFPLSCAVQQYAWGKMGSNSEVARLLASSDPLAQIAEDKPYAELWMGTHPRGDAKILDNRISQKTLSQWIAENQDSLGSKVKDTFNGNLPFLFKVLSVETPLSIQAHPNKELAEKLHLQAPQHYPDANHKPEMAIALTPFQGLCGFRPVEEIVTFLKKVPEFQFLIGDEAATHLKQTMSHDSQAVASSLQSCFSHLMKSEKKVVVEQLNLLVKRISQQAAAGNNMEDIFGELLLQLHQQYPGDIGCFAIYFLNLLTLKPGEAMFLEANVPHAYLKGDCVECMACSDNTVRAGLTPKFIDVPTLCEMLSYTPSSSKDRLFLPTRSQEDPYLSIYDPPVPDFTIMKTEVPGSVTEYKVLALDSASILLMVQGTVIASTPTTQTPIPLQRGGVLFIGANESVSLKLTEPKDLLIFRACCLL

[6] = Vero E6 cell cytotoxicity, dose response, cytotoxicity control for non-replicating M. tuberculosis project, secondary assay (AID 492998); format: functional, VeroE6; conditions: Vero C1008
cells [7] = format: functional
[8] = target: T3, Replicative DNA helicase DnaB (Mycobacterium tuberculosis, UniProt P9WMR3); assay: DnaB intein splicing inhibitors, dose response, biochemical, cell-free fluorescence (AID 449749); format: functional
T3 sequence (P9WMR3 whole entry): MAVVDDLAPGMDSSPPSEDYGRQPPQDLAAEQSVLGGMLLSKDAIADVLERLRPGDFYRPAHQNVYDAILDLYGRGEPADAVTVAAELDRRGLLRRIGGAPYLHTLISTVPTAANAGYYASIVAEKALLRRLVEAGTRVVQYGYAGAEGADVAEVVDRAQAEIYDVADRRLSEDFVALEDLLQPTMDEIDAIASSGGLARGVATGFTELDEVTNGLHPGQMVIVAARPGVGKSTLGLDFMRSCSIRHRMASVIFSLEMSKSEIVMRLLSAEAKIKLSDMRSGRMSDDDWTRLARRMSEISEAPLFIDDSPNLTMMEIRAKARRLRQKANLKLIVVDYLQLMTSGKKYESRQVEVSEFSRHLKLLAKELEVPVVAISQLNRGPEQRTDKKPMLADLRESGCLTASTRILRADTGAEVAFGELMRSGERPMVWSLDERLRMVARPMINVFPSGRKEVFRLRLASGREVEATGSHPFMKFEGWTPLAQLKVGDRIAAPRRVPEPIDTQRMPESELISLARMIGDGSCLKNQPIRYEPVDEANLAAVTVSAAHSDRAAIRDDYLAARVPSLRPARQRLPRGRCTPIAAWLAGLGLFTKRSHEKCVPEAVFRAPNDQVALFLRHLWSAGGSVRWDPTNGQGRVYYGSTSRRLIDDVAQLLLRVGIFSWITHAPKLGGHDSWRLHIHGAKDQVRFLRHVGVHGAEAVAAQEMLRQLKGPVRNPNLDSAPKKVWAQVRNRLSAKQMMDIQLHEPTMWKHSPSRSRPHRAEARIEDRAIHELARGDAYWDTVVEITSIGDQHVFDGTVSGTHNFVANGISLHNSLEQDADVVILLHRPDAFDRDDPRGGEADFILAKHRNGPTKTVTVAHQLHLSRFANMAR

Protein RecA = target: T4, Protein RecA (Mycobacterium tuberculosis, UniProt P9WHJ3); assay: Fluorescence Cell-Free Homogeneous Dose Retest to Identify Inhibitors of RecA-Intein Splicing Activity. [Related pubchem assays (depositor defined):AID2097, AID2223, AID489010, AID492950]; format: functional
T4 sequence (P9WHJ3 whole entry): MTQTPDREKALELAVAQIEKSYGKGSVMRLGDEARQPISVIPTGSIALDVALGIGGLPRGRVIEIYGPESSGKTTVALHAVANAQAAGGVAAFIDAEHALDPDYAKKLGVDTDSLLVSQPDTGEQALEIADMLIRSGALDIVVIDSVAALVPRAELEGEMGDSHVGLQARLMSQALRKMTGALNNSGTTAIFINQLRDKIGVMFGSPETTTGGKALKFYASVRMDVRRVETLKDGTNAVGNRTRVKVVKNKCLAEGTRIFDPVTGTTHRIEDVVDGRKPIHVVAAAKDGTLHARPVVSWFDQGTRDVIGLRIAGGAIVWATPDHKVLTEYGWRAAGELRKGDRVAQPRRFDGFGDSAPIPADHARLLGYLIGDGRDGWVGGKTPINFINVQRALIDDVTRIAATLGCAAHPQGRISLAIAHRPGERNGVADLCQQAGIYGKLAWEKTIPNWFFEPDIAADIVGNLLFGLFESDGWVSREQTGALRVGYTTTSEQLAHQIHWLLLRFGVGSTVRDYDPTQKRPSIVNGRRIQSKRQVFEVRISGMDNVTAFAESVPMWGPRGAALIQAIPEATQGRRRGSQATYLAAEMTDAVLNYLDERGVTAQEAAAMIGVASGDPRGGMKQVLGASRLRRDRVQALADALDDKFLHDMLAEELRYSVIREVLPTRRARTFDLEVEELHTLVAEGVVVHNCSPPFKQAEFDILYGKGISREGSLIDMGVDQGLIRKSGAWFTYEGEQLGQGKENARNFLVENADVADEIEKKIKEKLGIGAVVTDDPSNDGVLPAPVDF

[9] = inhibitors of firefly luciferase expression or activity, dose response, H4 neuroglioma cells, luminescence (AID 1990); format: functional, cell-based
[10] = Luminescence Cell-Based Dose Response HTS to Identify Inhibitors of 5'UTR Stem-Loop Driven Prion Protein mRNA Translation in H4 Neuroglioblastoma Cells. [Related pubchem assays: 1827 (Project Summary), 1813 (Primary HTS)]; format: functional
[11] = inhibitors of SNCA 5'UTR-driven reporter translation, confirmation, H4 neuroglioma cells, luminescence (AID 1988); format: functional, cell-based
cells [12] = format: functional, cell-based
[13] = target: T5, Nuclear receptor subfamily 0 group B member 1 (Homo sapiens, UniProt P51843); format: functional, cell-based;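 further: HEK293T cells transfected with SF-1 and DAX-1 plus StAR promoter luciferase reporter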
T5 sequence (P51843 whole entry): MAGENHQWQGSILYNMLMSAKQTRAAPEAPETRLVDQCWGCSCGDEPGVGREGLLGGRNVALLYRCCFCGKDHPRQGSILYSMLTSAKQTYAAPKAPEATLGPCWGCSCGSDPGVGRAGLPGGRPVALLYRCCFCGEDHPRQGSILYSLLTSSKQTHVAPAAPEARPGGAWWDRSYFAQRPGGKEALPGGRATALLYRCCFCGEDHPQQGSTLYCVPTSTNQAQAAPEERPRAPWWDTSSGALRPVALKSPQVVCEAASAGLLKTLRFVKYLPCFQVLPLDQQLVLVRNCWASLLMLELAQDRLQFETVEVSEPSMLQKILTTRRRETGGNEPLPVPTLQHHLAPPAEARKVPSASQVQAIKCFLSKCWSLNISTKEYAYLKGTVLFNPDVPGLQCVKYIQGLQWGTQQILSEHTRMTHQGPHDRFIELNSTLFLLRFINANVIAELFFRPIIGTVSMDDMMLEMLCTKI

fMet-Leu-Phe receptor = target: T6, fMet-Leu-Phe receptor (Homo sapiens, UniProt P21462); assay: FPR ligands, dose response (AID 519); format: functional
T6 sequence (P21462 whole entry): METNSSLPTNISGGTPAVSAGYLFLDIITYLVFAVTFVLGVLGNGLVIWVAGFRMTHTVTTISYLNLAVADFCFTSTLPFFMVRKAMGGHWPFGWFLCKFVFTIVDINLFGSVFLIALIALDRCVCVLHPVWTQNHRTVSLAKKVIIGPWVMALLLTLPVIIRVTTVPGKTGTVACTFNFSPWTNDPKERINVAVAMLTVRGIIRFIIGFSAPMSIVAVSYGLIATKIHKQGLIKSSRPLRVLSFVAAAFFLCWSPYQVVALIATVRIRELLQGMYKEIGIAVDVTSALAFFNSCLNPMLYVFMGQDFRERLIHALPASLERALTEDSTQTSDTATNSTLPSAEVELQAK

cells [14] = format: functional, cell-based; remark: listed apart in the source
cells [15] = format: functional, cell-based; remark: listed apart in the source
HEK293 = assay: inhibitors of LMP1-driven NF-kB reporter, dose response, cell-based, HEK293, luciferase, cherry-pick (AID 588343); format: functional; conditions: Homo sapiens
cells [16] = format: functional, cell-based; remark: listed apart in the source
[17] = target: T7, Heat shock factor protein 1 (Mus musculus, UniProt P38532); assay: inhibition of MG132-induced HSE-luciferase signal, confirmation, cell-based, NIH3T3, luminescence, dose retest (AID 2382); format: functional;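 further: NIH3T3 fibroblasts with HSF1-driven luciferase reporter stressed by proteasome inhibitor MG132; luminescence from HSF1-driven luciferase expression after 8 hours of MG132 stress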
T7 sequence (P38532 whole entry): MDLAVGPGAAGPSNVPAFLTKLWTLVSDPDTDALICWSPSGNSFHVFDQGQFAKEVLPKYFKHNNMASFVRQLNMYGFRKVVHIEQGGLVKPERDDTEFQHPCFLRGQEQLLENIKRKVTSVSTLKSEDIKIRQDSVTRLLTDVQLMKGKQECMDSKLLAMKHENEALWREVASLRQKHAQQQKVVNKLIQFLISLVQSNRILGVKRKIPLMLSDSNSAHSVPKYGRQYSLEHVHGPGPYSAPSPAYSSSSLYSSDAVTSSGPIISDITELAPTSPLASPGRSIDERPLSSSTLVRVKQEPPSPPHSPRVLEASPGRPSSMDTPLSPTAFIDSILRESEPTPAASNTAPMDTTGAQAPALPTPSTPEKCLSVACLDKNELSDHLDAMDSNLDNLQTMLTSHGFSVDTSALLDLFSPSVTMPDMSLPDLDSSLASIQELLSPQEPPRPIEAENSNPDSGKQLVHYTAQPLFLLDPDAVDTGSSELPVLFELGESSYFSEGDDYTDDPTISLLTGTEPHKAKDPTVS

cells [18] = format: functional, cell-based; remark: listed apart in the source
[19] = inhibitors of HIV Env-driven cell fusion, dose response, cherry-pick (AID 652057); format: functional, cell-based
[20] = CEM21 lymphoblast cell cytotoxicity, dose response, cytotoxicity control for viral fusion inhibitor project, CellTiter-Glo luminescence, cherry-picked (AID 652042); format: functional, cell-based;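 further: potency for signal decrease meaning cytotoxicity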
[21] = ZM109 Env clade C HIV-1 fusion inhibitors, dose response, HeLa effector, CEM target cells, luciferase, cherry-pick (AID 652058); format: functional, cell-based
[22] = inhibitors of clade B AD8 Env fusion, dose response, cell-based, cherry-pick (AID 652062); format: functional;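 further: luciferase signal from cell-cell fusion driven by HIV-1 clade B AD8 Env; potency is for inhibitors of fusion seen as a drop in luminescence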

## CCN(CC)c1ccc2cc(C(=O)c3cccs3)c(=O)oc2c1
[1]
  AC50: 0.195 µM (active)
[2]
  EC50: > 91 µM (inactive)
[3]
  EC50: > 91 µM (inactive)

## C[C@H](NC(=O)c1[nH]cnc1C(=O)NC(c1ccccc1)c1ccccc1)C(=O)OCc1ccccc1
[4]
  IC50: > 69.5 µM (inactive)

## CCOC(=O)C(Nc1ccc2ccccc2c1)C(=O)OCC
[5]
  IC50: > 50 µM (not active)
[6]
  CC50: > 20 µM (active)
Cells [7]
  IC50: 4.41 µM (active)
[8]
  AC50: 5.7 µM (active)
Protein RecA
  EC50: 13 µM (active)
[2]
  EC50: > 91.2 µM (inactive)
[3]
  EC50: > 91.2 µM (inactive)

## Cc1c(C(=O)OCC(C)C)[nH]c2c1C(=O)CC(c1ccco1)C2 (configuration not stated)
[9]
  EC50: 1.95 µM (active)
[10]
  EC50: 1.5 µM (active)
[11]
  EC50: 0.212 µM (active)
Cells [12]
  IC50: > 67.5 µM (inactive)
[13]
  IC50: > 67.5 µM (inactive)

## Cc1ccc(F)c(NC(=O)C2CCCCC2C(=O)O)c1 (configuration not stated)
fMet-Leu-Phe receptor
  Ki: > 66.7 µM (inactive)

## c1ccc(CCN2CN(CCCN3CCOCC3)c3nc4ccccc4n3C2)cc1
Cells [14]
  IC50: > 29.9 µM (inactive)
Cells [15]
  EC50: > 29.9 µM (inactive)

## COc1cccc(-c2nc(CS(=O)(=O)CC(=O)NCCC(C)C)c(C)o2)c1
fMet-Leu-Phe receptor
  Ki: > 66.7 µM (inactive)

## CC(C)Oc1ccc(C(=O)Nc2nnc(SCC(=O)N3CCOCC3)s2)cc1
HEK293
  AC50: 0.897 µM (active)
Cells [12]
  IC50: > 67.5 µM (inactive)
[13]
  IC50: > 67.5 µM (inactive)

## COc1ccc(C2NC(S)=NC3=C2CCCC3=C2SCCS2)cc1 (configuration not stated)
Cells [16]
  EC50: 10.6 µM (active)
[17]
  EC50: > 195 µM (not active)
Cells [18]
  EC50: > 350 µM (not active)
Cells [12]
  IC50: > 67.5 µM (inactive)
[13]
  IC50: 7.9 µM (active)

## O=C(C[C@H]1C=C[C@@H](NC(=O)c2cccc(F)c2)[C@@H](CO)O1)NCc1ccc(Oc2ccccc2)cc1
[19]
  AC50: 0.988 µM (active)
[20]
  AC50: 46.3 µM (active)
[21]
  AC50: 0.725 µM (active)
[22]
  AC50: 2.83 µM (active)
